Source: PubChem BioAssay (NCI)
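Exposure lasted 48 hours, with cells grown in 96-well plates and compounds tested at five concentrations. TGI: concentration producing complete growth inhibition.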

Columns and labels:
Assay in all cases: growth of human tumour cells (NCI), 48 h
[1] = tested on: SK-MEL-28 melanoma
[2] = tested on: OVCAR-4 ovarian
[3] = tested on: RXF 393 renal
[4] = tested on: MDA-N
[5] = tested on: CCRF-CEM leukemia
[6] = tested on: LOX IMVI melanoma
[7] = tested on: TK-10 renal
[8] = tested on: 786-0 renal
[9] = tested on: A498 renal
[10] = tested on: NCI-H460 lung
[11] = tested on: HT29 colon

Row | SMILES | TGI [1] | TGI [2] | TGI [3] | TGI [4] | TGI [5] | TGI [6] | TGI [7] | TGI [8] | TGI [9] | TGI [10] | TGI [11]
1 | CC(O)CNC1=CC(=O)C(=O)c2ccccc21 (stereo unspecified) | 35 µM | 26 µM | > 100 µM | 34.5 µM | > 100 µM | 34.8 µM | 70.4 µM | 32.2 µM | 62.9 µM | 30.6 µM | –
2 | C#CCOCC12C=CC(O1)C1COC(=O)C12 (stereo unspecified) | > 100 µM | > 100 µM | > 100 µM | > 100 µM | > 100 µM | > 100 µM | > 100 µM | > 100 µM | > 100 µM | > 100 µM | > 100 µM
3 | Cc1nc(SCC(N)=O)c2sc(=S)n(-c3ccccc3)c2n1 | > 10 µM | > 10 µM | > 10 µM | > 10 µM | > 10 µM | > 10 µM | > 10 µM | > 10 µM | > 10 µM | > 10 µM | > 10 µM
4 | Cc1nnc2n1-c1ccccc1N(Cc1ccccc1)CC2 | > 100 µM | > 100 µM | > 100 µM | > 100 µM | 90.3 µM | > 100 µM | > 100 µM | > 100 µM | > 100 µM | > 100 µM | > 100 µM
5 | O=C1NC(=S)NC(=O)C1C(c1ccc(Cl)cc1)C1C(=O)NC(=S)NC1=O | > 100 µM | > 100 µM | > 100 µM | > 100 µM | > 100 µM | > 100 µM | > 100 µM | > 100 µM | > 100 µM | > 100 µM | > 100 µM
6 | CCN(CC)c1ccc(NC(=S)NN(C)C)cc1 | > 10 µM | > 10 µM | > 10 µM | > 10 µM | > 10 µM | > 10 µM | > 10 µM | > 10 µM | > 10 µM | > 10 µM | > 10 µM
7 | C[n+]1c(-c2ccc(NC(=O)c3ccc(C(=O)Nc4ccc(-c5cn6ccccc6[n+]5C)cc4)cc3)cc2)cn2ccccc21 | > 100 µM | > 100 µM | > 100 µM | > 100 µM | > 100 µM | > 100 µM | > 100 µM | > 100 µM | > 94.9 µM | > 100 µM | > 100 µM
8 | O=[N+]([O-])/C(Cl)=C(/C(Cl)=C(Cl)Cl)N1CCCCC1 | 30.3 µM | 27.5 µM | 20.6 µM | 23.9 µM | 19.7 µM | 25.5 µM | 35.8 µM | 23.4 µM | 33.4 µM | 43 µM | 29.5 µM
9 | CCCCCCCCCCCCNC(=O)CCC(NC(=O)c1ccc(N(C)Cc2cnc3nc(N)nc(N)c3n2)cc1)C(=O)NCCCCCCCCCCCC (stereo unspecified) | > 100 µM | > 100 µM | 43.3 µM | > 100 µM | 66.7 µM | 30.7 µM | > 100 µM | > 100 µM | > 100 µM | – | > 100 µM
10 | Cc1cn(CCCCCOC(=O)NC(CCCNC(N)=O)C(=O)O)c(=O)[nH]c1=O (stereo unspecified) | > 100 µM | > 100 µM | > 100 µM | > 100 µM | > 100 µM | > 100 µM | > 100 µM | > 100 µM | > 100 µM | > 100 µM | > 100 µM
11 | S=c1[nH]nc(Cn2c3ccc(Br)cc3c3nc4ccccc4nc32)n1C1CCCCC1 | > 56.8 µM | > 100 µM | 70.1 µM | > 93.7 µM | 84.1 µM | 23 µM | > 95.1 µM | 54.8 µM | 58.1 µM | > 100 µM | > 100 µM
12 | COC(=O)C1=C(C)NC(C)=C(C(=O)OC)C1c1cccc(N=O)c1 | 30.4 µM | 26.2 µM | 26.8 µM | 26.2 µM | > 100 µM | 31.6 µM | 28.2 µM | 30.3 µM | 98.2 µM | 31 µM | 34 µM
13 | O=C(Sc1c(-c2ccccc2)c(=O)n(-c2ccccc2)c(=S)n1-c1ccccc1)c1ccco1 | > 100 µM | > 100 µM | > 100 µM | > 100 µM | 69.3 µM | > 100 µM | > 100 µM | > 100 µM | > 100 µM | > 100 µM | > 100 µM
14 | CCC(=O)Nc1ccc(NS(=O)(=O)c2ccc(Cl)cc2)cc1 | > 100 µM | > 100 µM | > 100 µM | > 100 µM | > 100 µM | > 100 µM | – | > 100 µM | > 100 µM | > 100 µM | > 100 µM
15 | NCCN(CCN(C(=O)Nc1ccccc1)c1ccccc1)C(=O)Nc1ccccc1 | 35.9 µM | – | 34.5 µM | 47.8 µM | > 100 µM | 47.6 µM | 60.3 µM | 55.4 µM | 40.5 µM | 42.8 µM | > 100 µM
16 | Clc1ccc(OCc2nnc(COc3ccc(OCc4nnc(COc5ccc(Cl)cc5Cl)o4)c(Cl)c3)o2)c(Cl)c1 | > 100 µM | – | 59.6 µM | > 100 µM | 38.5 µM | 33.4 µM | > 100 µM | > 100 µM | > 100 µM | > 100 µM | 87.5 µM
